In patent US7407941B2, “N-desmethyl-N-substituted-11-deoxyerythromycin compounds” (Pfizer, Inc., priority 2003, dated 2008):
Converted amounts (≈) assume the structure as drawn.

Experiments:
Assay type in all cases: cell-based
[1] = target: T1, motilin receptor (Homo sapiens, UniProt O43193); assay: Motilin agonist activity (activation of the motilin receptor)
T1 construct: expressed in transfected cells
Method: Compounds of this invention were tested for motilin agonist activity, following the procedure of Carreras et al., Anal. Biochem., 300, 146-151 (2002), the disclosure of which is incorporated herein by reference.

[2] = test system: Streptococcus pneumoniae ATCC 49619; assay: In vitro antibacterial activity (MIC); conditions: ATCC49619, erythromycin sensitive strain ATCC 49619
Method: (§1) Compounds of this invention were tested for in vitro activity against three erythromycin sensitive strains of Streptococcus pneumoniae (ATCC 6301, ATCC 700671, and ATCC 49619), using methods known in the microbiological art.

[3] = test system: Streptococcus pneumoniae ATCC 70071; assay: In vitro antibacterial activity (MIC); conditions: ATCC70071, erythromycin sensitive strain ATCC 70071
Method: as §1

[4] = test system: Streptococcus pneumoniae ATCC 6301; assay: In vitro antibacterial activity (MIC); conditions: ATCC6301, erythromycin sensitive strain ATCC 6301
Method: as §1

T1 sequence (O43193 whole entry): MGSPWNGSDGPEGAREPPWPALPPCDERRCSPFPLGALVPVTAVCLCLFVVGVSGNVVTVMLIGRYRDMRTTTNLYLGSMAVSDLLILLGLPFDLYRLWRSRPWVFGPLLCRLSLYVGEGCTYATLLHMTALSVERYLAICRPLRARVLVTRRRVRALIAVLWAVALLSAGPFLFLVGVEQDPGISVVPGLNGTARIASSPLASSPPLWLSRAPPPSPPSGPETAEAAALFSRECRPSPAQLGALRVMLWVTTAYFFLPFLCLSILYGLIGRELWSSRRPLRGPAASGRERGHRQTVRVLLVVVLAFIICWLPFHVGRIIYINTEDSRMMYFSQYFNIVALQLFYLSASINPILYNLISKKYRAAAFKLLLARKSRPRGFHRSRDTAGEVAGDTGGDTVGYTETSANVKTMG

EC50 [1] | MIC [2] | MIC [3] | MIC [4] | SMILES
700 nM | 6.25 µg/mL (≈ 8.56 µM) | 200 µg/mL (≈ 274 µM) | 12.5 µg/mL (≈ 17.1 µM) | CC[C@H]1OC(=O)[C@H](C)[C@@H](O[C@H]2C[C@@](C)(OC)[C@@H](O)[C@H](C)O2)[C@H](C)[C@@H](O[C@@H]2O[C@H](C)C[C@H](N(C)C(C)C)[C@H]2O)C(C)(O)C[C@@H](C)C(=O)[C@H](C)C[C@H]1C (stereo partly drawn) [IVa, N-desmethyl-N-isopropyl-11-deoxyerythromycin B]
 | 0.049 µg/mL (≈ 0.0668 µM) | 0.049 µg/mL (≈ 0.0668 µM) | 0.025 µg/mL (≈ 0.0341 µM) | CC[C@H]1OC(=O)[C@H](C)[C@@H](O[C@H]2C[C@@](C)(OC)[C@@H](O)[C@H](C)O2)[C@H](C)[C@@H](O[C@@H]2O[C@H](C)C[C@H](N(C)C)[C@H]2O)[C@](C)(O)C[C@@H](C)C(=O)[C@H](C)[C@@H](O)[C@]1(C)O [Erythromycin A, reference compound]
2100 nM | 200 µg/mL (≈ 269 µM) | > 200 µg/mL | 200 µg/mL (≈ 269 µM) | CC[C@H]1OC(=O)[C@H](C)[C@@H](O[C@H]2C[C@@](C)(OC)[C@@H](O)[C@H](C)O2)[C@H](C)[C@@H](O[C@@H]2O[C@H](C)C[C@H](N(C)CC(C)C)[C@H]2O)C(C)(O)C[C@@H](C)C(=O)[C@H](C)C[C@H]1C (stereo partly drawn) [IVb, N-desmethyl-N-isobutyl-11-deoxyerythromycin B]
1200 nM | 0.098 µg/mL (≈ 0.14 µM) | 0.78 µg/mL (≈ 1.11 µM) | 0.049 µg/mL (≈ 0.0698 µM) | CC[C@H]1OC(=O)[C@H](C)[C@@H](O[C@H]2C[C@@](C)(OC)[C@@H](O)[C@H](C)O2)[C@H](C)[C@@H](O[C@@H]2O[C@H](C)C[C@H](N(C)C)[C@H]2O)C(C)(O)C[C@@H](C)C(=O)[C@H](C)C[C@H]1C (stereo partly drawn) [11-Deoxyerythromycin B, reference compound]
